In brackets after ≈: the same amount, converted by molar mass. Like-named read-outs stand apart in the source and are kept apart here.
Experiments:
[1] = tested on: E. coli GC 2236; assay: MIC, broth microdilution; conditions: Escherichia coli
[2] = tested on: E. coli GC 2231; assay: MIC, broth microdilution; conditions: Escherichia coli
[3] = tested on: E. coli GC 2235; assay: MIC, broth microdilution; conditions: Escherichia coli
[4] = tested on: E. coli GC 2232; assay: MIC, broth microdilution; conditions: Escherichia coli
[5] = tested on: E. coli GC 2234; assay: MIC, broth microdilution; conditions: Escherichia coli
[6] = tested on: E. coli GC 4559; assay: MIC, broth microdilution; conditions: Escherichia coli
[7] = tested on: S. typhimurium GC 2172; assay: MIC, broth microdilution; conditions: Salmonella enterica, TYPHIMURIUM
[8] = tested on: S. aureus GC 6466; assay: MIC, broth microdilution; conditions: Staphylococcus aureus
[9] = tested on: S. aureus GC 4536; assay: MIC, broth microdilution; conditions: Staphylococcus aureus
[10] = tested on: S. aureus GC 2216; assay: MIC, broth microdilution; conditions: Staphylococcus aureus
[11] = tested on: E. faecalis GC 4555; assay: MIC, broth microdilution; conditions: Enterococcus faecalis
[12] = tested on: E. faecalis GC 2242; assay: MIC, broth microdilution; conditions: Enterococcus faecalis
[13] = tested on: E. faecium GC 4556; assay: MIC, broth microdilution; conditions: Enterococcus faecium
[14] = tested on: S. pneumoniae* GC 4465; assay: MIC, broth microdilution; conditions: Streptococcus pneumoniae
[15] = tested on: S. pneumoniae+ GC 4465; assay: MIC, broth microdilution; conditions: Streptococcus pneumoniae
[16] = tested on: S. pyogenes GC 4563; assay: MIC, broth microdilution; conditions: Streptococcus pyogenes
[17] = tested on: S. agalactiae GC 4564; assay: MIC, broth microdilution; conditions: Streptococcus agalactiae
[18] = tested on: E. coli; assay: Range of MIC for E. coli strains; conditions: Escherichia coli
[19] = tested on: Staph.; assay: Range of MIC for Staph. strains, including MRSA; conditions: Staphylococcus aureus
[20] = tested on: Staph. aureus Smith; assay: In vivo activity (oral, iv; ED50) against Staph. aureus Smith in mice
[21] = read-out: MINIMAL INHIBITORY CONCENTRATION MIC, Human Serum
[22] = read-out: MINIMAL INHIBITORY CONCENTRATION MIC, Mouse Serum
[23] = read-out: MINIMAL INHIBITORY CONCENTRATION MIC, Water

- MIC ([1]; GC2236, read-out: MINIMAL INHIBITORY CONCENTRATION MIC, Human Serum): 8 µg/mL (≈ 10.2 µM)
- MIC ([1]; GC2236, read-out: MINIMAL INHIBITORY CONCENTRATION MIC, Mouse Serum): 1 µg/mL (≈ 1.28 µM)
- MIC ([1]; GC2236, read-out: MINIMAL INHIBITORY CONCENTRATION MIC, Water): 8 µg/mL (≈ 10.2 µM)
- MIC ([2]; GC2231, read-out: MINIMAL INHIBITORY CONCENTRATION MIC, Human Serum): 8 µg/mL (≈ 10.2 µM)
- MIC ([2]; GC2231, read-out: MINIMAL INHIBITORY CONCENTRATION MIC, Mouse Serum): 1 µg/mL (≈ 1.28 µM)
- MIC ([2]; GC2231, read-out: MINIMAL INHIBITORY CONCENTRATION MIC, Water): 16 µg/mL (≈ 20.5 µM)
- MIC ([3]; GC2235, read-out: MINIMAL INHIBITORY CONCENTRATION MIC, Human Serum): 4 µg/mL (≈ 5.12 µM)
- MIC ([3]; GC2235, read-out: MINIMAL INHIBITORY CONCENTRATION MIC, Mouse Serum): 0.5 µg/mL (≈ 0.64 µM)
- MIC ([3]; GC2235, read-out: MINIMAL INHIBITORY CONCENTRATION MIC, Water): 4 µg/mL (≈ 5.12 µM)
- MIC ([4]; GC2232, read-out: MINIMAL INHIBITORY CONCENTRATION MIC, Human Serum): 4 µg/mL (≈ 5.12 µM)
- MIC ([4]; GC2232, read-out: MINIMAL INHIBITORY CONCENTRATION MIC, Mouse Serum): 0.5 µg/mL (≈ 0.64 µM)
- MIC ([4]; GC2232, read-out: MINIMAL INHIBITORY CONCENTRATION MIC, Water): 8 µg/mL (≈ 10.2 µM)
- MIC ([5]; GC2234, read-out: MINIMAL INHIBITORY CONCENTRATION MIC, Human Serum): 4 µg/mL (≈ 5.12 µM)
- MIC ([5]; GC2234, read-out: MINIMAL INHIBITORY CONCENTRATION MIC, Mouse Serum): 0.5 µg/mL (≈ 0.64 µM)
- MIC ([5]; GC2234, read-out: MINIMAL INHIBITORY CONCENTRATION MIC, Water): 8 µg/mL (≈ 10.2 µM)
- MIC ([6]; GC4559, read-out: MINIMAL INHIBITORY CONCENTRATION MIC, Human Serum): 8 µg/mL (≈ 10.2 µM)
- MIC ([6]; GC4559, read-out: MINIMAL INHIBITORY CONCENTRATION MIC, Mouse Serum): 1 µg/mL (≈ 1.28 µM)
- MIC ([6]; GC4559, read-out: MINIMAL INHIBITORY CONCENTRATION MIC, Water): 8 µg/mL (≈ 10.2 µM)
- MIC [7, 21]: 64 µg/mL (≈ 81.9 µM)
- MIC [7, 22]: 4 µg/mL (≈ 5.12 µM)
- MIC [7, 23]: 64 µg/mL (≈ 81.9 µM)
- MIC ([8]; GC6466, read-out: MINIMAL INHIBITORY CONCENTRATION MIC, Human Serum): 1 µg/mL (≈ 1.28 µM)
- MIC ([8]; GC6466, read-out: MINIMAL INHIBITORY CONCENTRATION MIC, Mouse Serum): 0.5 µg/mL (≈ 0.64 µM)
- MIC ([8]; GC6466, read-out: MINIMAL INHIBITORY CONCENTRATION MIC, Water): 2 µg/mL (≈ 2.56 µM)
- MIC ([9]; GC4536, read-out: MINIMAL INHIBITORY CONCENTRATION MIC, Human Serum): 0.5 µg/mL (≈ 0.64 µM)
- MIC ([9]; GC4536, read-out: MINIMAL INHIBITORY CONCENTRATION MIC, Mouse Serum): 0.5 µg/mL (≈ 0.64 µM)
- MIC ([9]; GC4536, read-out: MINIMAL INHIBITORY CONCENTRATION MIC, Water): 2 µg/mL (≈ 2.56 µM)
- MIC ([10]; GC2216, read-out: MINIMAL INHIBITORY CONCENTRATION MIC, Human Serum): 1 µg/mL (≈ 1.28 µM)
- MIC ([10]; GC2216, read-out: MINIMAL INHIBITORY CONCENTRATION MIC, Mouse Serum): 0.5 µg/mL (≈ 0.64 µM)
- MIC ([10]; GC2216, read-out: MINIMAL INHIBITORY CONCENTRATION MIC, Water): 4 µg/mL (≈ 5.12 µM)
- MIC ([11]; GC4555, read-out: MINIMAL INHIBITORY CONCENTRATION MIC, Human Serum): 2 µg/mL (≈ 2.56 µM)
- MIC ([11]; GC4555, read-out: MINIMAL INHIBITORY CONCENTRATION MIC, Mouse Serum): 0.5 µg/mL (≈ 0.64 µM)
- MIC ([11]; GC4555, read-out: MINIMAL INHIBITORY CONCENTRATION MIC, Water): 4 µg/mL (≈ 5.12 µM)
- MIC ([12]; GC2242, read-out: MINIMAL INHIBITORY CONCENTRATION MIC, Human Serum): 4 µg/mL (≈ 5.12 µM)
- MIC ([12]; GC2242, read-out: MINIMAL INHIBITORY CONCENTRATION MIC, Mouse Serum): 0.5 µg/mL (≈ 0.64 µM)
- MIC ([12]; GC2242, read-out: MINIMAL INHIBITORY CONCENTRATION MIC, Water): 4 µg/mL (≈ 5.12 µM)
- MIC ([13]; GC4556, read-out: MINIMAL INHIBITORY CONCENTRATION MIC, Human Serum): 2 µg/mL (≈ 2.56 µM)
- MIC ([13]; GC4556, read-out: MINIMAL INHIBITORY CONCENTRATION MIC, Mouse Serum): 0.5 µg/mL (≈ 0.64 µM)
- MIC ([13]; GC4556, read-out: MINIMAL INHIBITORY CONCENTRATION MIC, Water): 4 µg/mL (≈ 5.12 µM)
- MIC [14, 21]: 0.25 µg/mL (≈ 0.32 µM)
- MIC [14, 22]: < 0.06 µg/mL
- MIC [14, 23]: 0.12 µg/mL (≈ 0.153 µM)
- MIC [15, 21]: 4 µg/mL (≈ 5.12 µM)
- MIC [15, 22]: 1 µg/mL (≈ 1.28 µM)
- MIC [15, 23]: 2 µg/mL (≈ 2.56 µM)
- MIC ([16]; GC4563, read-out: MINIMAL INHIBITORY CONCENTRATION MIC, Human Serum): 0.25 µg/mL (≈ 0.32 µM)
- MIC ([16]; GC4563, read-out: MINIMAL INHIBITORY CONCENTRATION MIC, Mouse Serum): 0.12 µg/mL (≈ 0.153 µM)
- MIC ([16]; GC4563, read-out: MINIMAL INHIBITORY CONCENTRATION MIC, Water): 0.25 µg/mL (≈ 0.32 µM)
- MIC ([17]; GC4564, read-out: MINIMAL INHIBITORY CONCENTRATION MIC, Human Serum): 0.5 µg/mL (≈ 0.64 µM)
- MIC ([17]; GC4564, read-out: MINIMAL INHIBITORY CONCENTRATION MIC, Mouse Serum): 0.12 µg/mL (≈ 0.153 µM)
- MIC ([17]; GC4564, read-out: MINIMAL INHIBITORY CONCENTRATION MIC, Water): 0.5 µg/mL (≈ 0.64 µM)
- MIC ([18]; 20 h, read-out: Range of MIC, E. coli (Mouse Serum)): 0.5 to 1 µg/mL (≈ 0.64 to 1.28 µM)
- MIC ([18]; read-out: Minimum inhibitory concentration (MIC), E. coli (Human Serum)): 4 to 16 µg/mL (≈ 5.12 to 20.5 µM)
- MIC ([18]; read-out: Minimum inhibitory concentration (MIC), E. coli (water)): 4 to 16 µg/mL (≈ 5.12 to 20.5 µM)
- MIC ([18]; read-out: Range of MIC, E. coli (Water)): 4 to 16 µg/mL (≈ 5.12 to 20.5 µM)
- MIC ([19]; MRSA, read-out: Range of MIC, Staph (Mouse Serum)): 0.5 to 1 µg/mL (≈ 0.64 to 1.28 µM)
- MIC ([19]; MRSA, read-out: Range of MIC, Staph (Water)): 2 to 4 µg/mL (≈ 2.56 to 5.12 µM)
- MIC ([19]; read-out: Minimum inhibitory concentration (MIC), Staph (Human Serum)): 0.5 to 4 µg/mL (≈ 0.64 to 5.12 µM)
- MIC ([19]; read-out: Minimum inhibitory concentration (MIC), Staph (Water)): 2 to 4 µg/mL (≈ 2.56 to 5.12 µM)
Structure (SMILES): CN(C)c1cc(NC(=O)CN(C(=O)OCOC(=O)c2ccc(F)cc2)C(C)(C)C)c(O)c2c1C[C@H]1C[C@H]3[C@H](N(C)C)C(O)=C(C(N)=O)C(=O)[C@@]3(O)C(O)=C1C2=O [Example 52, ({[(2-{[(5aR,6aS,7S,10aS)-9-(aminocarbonyl)-4,7-bis(dimethylamino)-1,8,10a,11-tetrahydroxy-10,12-dioxo-5,5a,6,6a,7,10,10a,12-octahydrotetracen-2-yl]amino}-2-oxoethyl)(tert-butyl)amino]carbonyl}oxy)methyl 4-fluorobenzoate]
- ED50 ([20]; Staphylococcus aureus, in Mus musculus, iv, read-out: ED50 SIV (Staph aureus Smith)): 1.29 mg/kg
- ED50 ([20]; Staphylococcus aureus, in Mus musculus, po, read-out: ED50 SOD (Staph aureus Smith)): 10.7 mg/kg
- ED50 ([20]; Staphylococcus aureus, in Mus musculus, po, read-out: ED50 Staph Smith SOD): 10.7 mg/kg
- ED50 ([20]; iv, read-out: ED50 Staph Smith SIV): 1.29 mg/kg

Reference: US20070049564A1 (Wyeth, priority 2005, published 2007)
